Consider 98 compounds from ChEMBL document CHEMBL3507680, “University of Dundee, Gates Library screen for HepG2 cell viability”.

The series in a line: Human HepG2 cell viability assay in 384 well format. It counts as toxicity, cell-based. Further details: dose 125 nL, time 70.5 hour; cytotoxicity at 70.5 h: concentration not given beside the values. The note with it: HepG2 cells, read-out: Inhibition.
As for `CCC(C)(C)n1nnnc1C(c1cccs1)N1CCc2ccccc21` (stereo not drawn), the cytotoxicity at 70.5 h was -1.64%.

On to `CC(CN(C)C)Nc1nc(O)cc(Cc2ccccc2F)n1` (stereo not drawn), for which the cytotoxicity at 70.5 h worked out at 4.28%.

`CC(C)CC(=O)N1CCC(Nc2nc(O)cc(-c3ccsc3)n2)CC1`: the cytotoxicity at 70.5 h came out at 11.2%.

Take `CC1(C(=O)NCCCOc2ccccc2F)CC(=O)N2C=CC=CC2=N1` (stereo not drawn): the cytotoxicity at 70.5 h was determined as 0.00385%.

As to `Cc1cc(C)nc(N2CCC(c3cccc(CCC(=O)O)n3)CC2)n1`, the cytotoxicity at 70.5 h was -9.41%.

With `O=C(Cc1ccccc1)NCc1ccc(-c2ccccc2C(=O)O)cn1`, the cytotoxicity at 70.5 h was 1.3%.

With `OCCN1CCC(c2csc(Nc3cnccn3)n2)CC1`, the cytotoxicity at 70.5 h came out at 14.5%.

As to `CC(=O)N1CCCC(c2nccnc2Nc2nc(C)cc(C)n2)C1` (stereo not drawn), the cytotoxicity at 70.5 h is 13.3%.

On to `CC(=O)NCc1ccc(-c2ccccc2C(=O)O)cn1`, for which the cytotoxicity at 70.5 h is -1.2%.

As for `c1cnnc(N[C@@H]2CC[C@@H]3CN(Cc4c[nH]c5ccccc45)C[C@@H]32)c1`, the cytotoxicity at 70.5 h was 4.96%.

`O=C(c1ccc2c(c1)CCC2)N1CCn2ncnc2C1`: the cytotoxicity at 70.5 h amounted to 3.48%.

`COCC(=O)NCCn1nc(-c2cc(C)oc2C)ccc1=O`: the cytotoxicity at 70.5 h was -2.12%.

On to `CNC(=O)CCc1cc(C2CCCCN2C(C)C)nc(C)n1` (stereo not drawn), for which the cytotoxicity at 70.5 h is -1.6%.

As to `CNC(=O)CCc1cc(C2CCCCN2C)nc(C)n1` (stereo not drawn), the cytotoxicity at 70.5 h is -7.9%.

As to `COCCC(=O)N1Cc2nc3c(C)c(-c4cccs4)nn3c(O)c2C1`, the cytotoxicity at 70.5 h was -14.7%.

With `Cc1ccc(C(=O)N2CCC(c3noc(-c4cccnc4)n3)CC2)cn1`, the cytotoxicity at 70.5 h was -3.32%.

For `Cc1c(-c2cccs2)nn2c(O)c3c(nc12)CN(C(=O)C1CC1)C3`, the cytotoxicity at 70.5 h is -4.82%.

Turning to `Cc1cc2c(cc1Cl)C=CC1(CCN(C(=O)N3CCOCC3)CC1)O2`, the cytotoxicity at 70.5 h is 22%.

As for `Cc1cc2c(cc1Cl)C=CC1(CCN(CC(=O)N3CCCC3)CC1)O2`, the cytotoxicity at 70.5 h stood at 2.51%.

With `Cc1cc2c(cc1Cl)C=CC1(CCN(CC(=O)NC3CCCC3)CC1)O2`, the cytotoxicity at 70.5 h is -1.12%.

With `Cc1ccc(-c2cc(N)c(=O)n(C(C)C(N)=O)n2)o1` (stereo not drawn), the cytotoxicity at 70.5 h was -5.11%.

As to `O=C1CCC(c2nc(C3CCN(C(=O)Cc4cccs4)CC3)no2)N1` (stereo not drawn), the cytotoxicity at 70.5 h is -6.58%.

For the compound `O[C@@H]1C[C@H]2CN(Cc3ccsc3)[C@@H](Cc3ccccc3)CN2C1`, the cytotoxicity at 70.5 h is -1.32%.

`Cc1cc(N(C)C)nc(C2COCCN2Cc2nccn2C)n1` (stereo not drawn): the cytotoxicity at 70.5 h is -6.31%.

Regarding `CN(C)c1ncc(-c2ccc(C(N)=O)cc2)c(C2CNCCO2)n1` (stereo not drawn), the cytotoxicity at 70.5 h was -4.35%.

With `Nc1ncc(-c2ccc(F)cc2)c(C2CCCNC2)n1` (stereo not drawn), the cytotoxicity at 70.5 h amounted to 24.3%.

For the compound `Cc1nn(C)c(C)c1-c1nccnc1CC1CCNCC1`, the cytotoxicity at 70.5 h was -1.07%.

Turning to `Cc1cn[nH]c1C1COCCN1C(=O)c1ccc2[nH]nnc2c1` (stereo not drawn), the cytotoxicity at 70.5 h is -4.19%.

With `CNc1cc(C)nc(C2COCCN2Cc2csc(C)n2)n1` (stereo not drawn), the cytotoxicity at 70.5 h is -9.53%.

`COc1cccc(CC(=O)N2CCC(c3ccn4nccc4n3)CC2)c1`: the cytotoxicity at 70.5 h was -3.73%.

With `c1cc(NC2CC3(CCN(Cc4cscn4)C3)C2)ncn1` (stereo not drawn), the cytotoxicity at 70.5 h was -7.63%.

With `O=C(NC[C@]1(O)CCN(Cc2ccsc2)C[C@H]1O)c1c[nH]cn1`, the cytotoxicity at 70.5 h was -9.1%.

Consider `O[C@@H]1C[C@H]2CN(Cc3ccccc3Cl)[C@H](Cc3ccccc3)CN2C1`, for which the cytotoxicity at 70.5 h was determined as 25.5%.

Regarding `CN[C@@H]1CCC[C@@H](Oc2ccccc2Oc2ccc(C)cc2)[C@@H]1O`, the cytotoxicity at 70.5 h is 22.2%.

With `CC(=O)N1CCCC(c2ccc(CO)c(-c3c(C)noc3C)n2)C1` (stereo not drawn), the cytotoxicity at 70.5 h was 27.2%.

Consider `CNC(=O)CCc1cc(C2CCCN2C(=O)CO)nc(C)n1` (stereo not drawn), for which the cytotoxicity at 70.5 h was -5.79%.

`O=C(c1cc2cccc(F)c2[nH]1)N1C[C@@H](O)[C@H](N2CCCC2)C1`: the cytotoxicity at 70.5 h is -4.92%.

For the compound `Cc1cc(N2CCC(O)(CN(C)C(=O)CCN)CC2)c2cnccc2n1`, the cytotoxicity at 70.5 h is -5.17%.

With `CCC1CNCc2cc3c(C)ccc(C)c3nc2O1` (stereo not drawn), the cytotoxicity at 70.5 h was -1.78%.

Regarding `Cc1ncsc1-c1cc(C(=O)NCCO)ccn1`, the cytotoxicity at 70.5 h came out at 21.2%.

On to `Cc1ccnc(C2CCN(C(=O)c3cnn(C)c3)CC2)n1`, for which the cytotoxicity at 70.5 h came out at 23.3%.

Consider `COCCN1CCC(Cc2cnc(-c3ccccc3C(=O)O)cn2)CC1`, for which the cytotoxicity at 70.5 h stood at 8.51%.

As to `COCCN1C(=O)CO[C@H]2CN(Cc3ccccc3Cl)C[C@@H]21`, the cytotoxicity at 70.5 h was -9.25%.

With `Cc1ncc(CNC(=O)CCc2cccs2)c(C2CCCN2C)n1` (stereo not drawn), the cytotoxicity at 70.5 h was -4.28%.

On to `COc1cccc(CN2CC[C@H](NC(C)=O)[C@@H](O)CC2)c1F`, for which the cytotoxicity at 70.5 h was -1.47%.

Regarding `CC(=O)N1CCN([C@@H]2CC[C@@H](NC(=O)c3ccc(C)nc3)[C@H]2O)CC1`, the cytotoxicity at 70.5 h is -5.95%.

In the case of `CN1CCC(c2cccc(Cc3ccc(C(F)(F)F)cc3)n2)CC1`, the cytotoxicity at 70.5 h was -0.939%.

Turning to `Cc1noc(C)c1-c1cccc(CC2CCN(C(=O)c3cscn3)C2)n1` (stereo not drawn), the cytotoxicity at 70.5 h is -5.81%.

`CC(=O)Nc1nc(C2CCN(C(=O)C3CCC3)CC2)cs1`: the cytotoxicity at 70.5 h was -5.93%.

Regarding `CS(=O)(=O)N1CCCC(c2cncc(Nc3ccccn3)n2)C1` (stereo not drawn), the cytotoxicity at 70.5 h was -7.64%.

Take `NC(=O)C1(c2cnccn2)CCCN1Cc1ccc(Cl)cc1` (stereo not drawn): the cytotoxicity at 70.5 h was -9.51%.

Regarding `c1cnc(Nc2cncc(C3CCCN(c4ncccn4)C3)n2)nc1` (stereo not drawn), the cytotoxicity at 70.5 h is -7.66%.

As for `CS(=O)(=O)N1CCCC(Cc2cncc(-c3ccccc3C(=O)O)n2)C1` (stereo not drawn), the cytotoxicity at 70.5 h is -12.4%.

For `CN(Cc1ccc(F)cc1)CC1(O)CCN(C(=O)c2ccccn2)C1` (stereo not drawn), the cytotoxicity at 70.5 h is -12.9%.

For `CN(Cc1ccc(F)cc1)CC1(O)CCN(C(=O)c2cccs2)C1` (stereo not drawn), the cytotoxicity at 70.5 h amounted to 2.73%.

For `O=C(c1ccncc1)N1CCCC1c1nc(O)cc(-c2ccccn2)n1` (stereo not drawn), the cytotoxicity at 70.5 h was -2.92%.

`COc1ncc(CN2CCOC(C)(C(=O)N3CCOCC3)C2)cn1` (stereo not drawn): the cytotoxicity at 70.5 h is -4.39%.

For the compound `CN(C)C(=O)CN1CCCC1c1cccc(Cc2ccccc2F)n1` (stereo not drawn), the cytotoxicity at 70.5 h was found to be 0.856%.

Take `NC(=O)C1(c2cnccn2)CCCN1Cc1ccccn1` (stereo not drawn): the cytotoxicity at 70.5 h is -3.76%.

On to `NC(=O)C1(c2cnccn2)CCCN1Cc1cccc(Cl)c1` (stereo not drawn), for which the cytotoxicity at 70.5 h was -2.75%.

Take `NCC(=O)N1CCC(c2cncc(Oc3cccnc3)n2)CC1`: the cytotoxicity at 70.5 h was found to be 1.14%.

As for `Cc1ccc(CN2CCCC2(C(N)=O)c2cnccn2)c(C)c1` (stereo not drawn), the cytotoxicity at 70.5 h is -0.964%.

In the case of `c1cnc(Nc2cncc(C3CCCN(c4cnccn4)C3)n2)nc1` (stereo not drawn), the cytotoxicity at 70.5 h was -5.35%.

In the case of `CN(C)Cc1ccnc(C2CN(CCc3ccccc3)CCO2)n1` (stereo not drawn), the cytotoxicity at 70.5 h turned out to be 17.9%.

Turning to `CNC(=O)C1(c2cnccn2)CCCN1C(=O)c1c(F)cccc1F` (stereo not drawn), the cytotoxicity at 70.5 h is 18.1%.

Take `Cc1ccccc1-c1cncc(C2CCN(Cc3ccccn3)CC2)n1`: the cytotoxicity at 70.5 h was -3.39%.

Take `Cc1ccc(CNc2nc(O)cc(C3CC(=O)N(C)C3)n2)cc1` (stereo not drawn): the cytotoxicity at 70.5 h was -4.28%.

Turning to `CC(=O)N1CCC(c2nc(C)cc(-c3ccccc3C(=O)O)n2)CC1`, the cytotoxicity at 70.5 h was -3.01%.

Turning to `Cc1ccc(CC(=O)N2CCCC(c3n[nH]c4nccnc34)C2)cc1` (stereo not drawn), the cytotoxicity at 70.5 h was -1.21%.

Consider `Cc1cccc(CC(=O)N2CCCC(c3n[nH]c4nccnc34)C2)c1` (stereo not drawn), for which the cytotoxicity at 70.5 h was determined as 14.6%.

Take `CNC(=O)c1ccc(C2CN(C(=O)c3c[nH]nc3C)CCO2)nc1` (stereo not drawn): the cytotoxicity at 70.5 h is -1.61%.

In the case of `CNc1cccc(C2CCCN(C(=O)c3coc(C)n3)C2)n1` (stereo not drawn), the cytotoxicity at 70.5 h is -0.702%.

For the compound `Nc1nc2nc(C3CCCN(C(=O)c4cncs4)C3)ccc2s1` (stereo not drawn), the cytotoxicity at 70.5 h is 0.556%.

Regarding `CC1CCN(S(=O)(=O)N2CCC(Oc3cnccn3)CC2)CC1`, the cytotoxicity at 70.5 h was -5.91%.

Regarding `Cc1ccnc(C2CCN(C(=O)c3cnn(C)c3)C2)n1` (stereo not drawn), the cytotoxicity at 70.5 h was determined as 12.7%.

In the case of `CCCN(C(=O)c1cnccn1)c1nc2c(s1)CCc1c-2cnn1C`, the cytotoxicity at 70.5 h stood at 7.37%.

As for `CN(C)Cc1ccnc(C2CCCN2Cc2cc3ccccc3s2)n1` (stereo not drawn), the cytotoxicity at 70.5 h is -1.24%.

In the case of `O=C(c1cccs1)N1CCc2c(nc(N3CCCCC3)[nH]c2=O)C1`, the cytotoxicity at 70.5 h was -0.672%.

For the compound `O=C(c1cc[nH]n1)N1CCc2c(nc(N3CCCCC3)[nH]c2=O)C1`, the cytotoxicity at 70.5 h is -4.43%.

In the case of `CNC(=O)[C@@H]1CN(C(=O)CCOC)C[C@H]1c1ccnc(N2CCCC2)n1`, the cytotoxicity at 70.5 h is -4.83%.

Regarding `CNC(=O)[C@@H]1CN(C(=O)C(C)C)C[C@H]1c1ccnc(N2CCCC2)n1`, the cytotoxicity at 70.5 h was -3.61%.

`CNC(=O)[C@@H]1CN(C(=O)C2CCC2)C[C@H]1c1ccnc(N2CCCC2)n1`: the cytotoxicity at 70.5 h is -0.284%.

Regarding `O=C(NC1CCCC1)c1ccnc(C2CCNCC2)c1`, the cytotoxicity at 70.5 h was -1.39%.

`Cc1nccn1CCCn1cncc1-c1ccc2c(c1)CCC(C)N2C` (stereo not drawn): the cytotoxicity at 70.5 h is -1.7%.

For the compound `Cn1cncc1CN1CCc2nc3sccc3c(=O)n2CC1`, the cytotoxicity at 70.5 h was -19.1%.

In the case of `CCOc1ccccc1-c1cc(N)[nH]n1`, the cytotoxicity at 70.5 h is -5.47%.

For the compound `Cc1nccn1CCCn1cncc1-c1ccc2c(c1)CCCN2C`, the cytotoxicity at 70.5 h is -5.52%.

In the case of `CN(C)c1ncc(-c2cncnc2)c(C2CNCCO2)n1` (stereo not drawn), the cytotoxicity at 70.5 h is -8.74%.

As to `COc1ccc(-c2cnc(N)nc2C2CCCNC2)cc1` (stereo not drawn), the cytotoxicity at 70.5 h stood at 0.112%.

As for `CC(C)(C)CC(=O)NCCn1nc(C2CCNC2)c2cccnc21` (stereo not drawn), the cytotoxicity at 70.5 h is -6.02%.

As to `CNCC(=O)N1CCCC1c1cncc(Oc2ccc(F)cc2)n1` (stereo not drawn), the cytotoxicity at 70.5 h is -2.91%.

With `CNC(=O)c1cccc(C2CNCCN2C(=O)c2cccc(F)c2)c1` (stereo not drawn), the cytotoxicity at 70.5 h came to 25%.

For `CC(=O)N1CCN(c2cc(CCN)nc(C3CC3)n2)CC1`, the cytotoxicity at 70.5 h is -1.97%.

For `CC1CCN(c2cc(CCC3CCCN3)ncn2)CC1` (stereo not drawn), the cytotoxicity at 70.5 h was -3.6%.

Consider `NCC(=O)N1CCCC(c2ccnc(Nc3cnccn3)n2)C1` (stereo not drawn), for which the cytotoxicity at 70.5 h was -7.18%.

Take `COc1ccc([C@@H]2CN(Cc3ccncc3)C[C@H]2c2cc[nH]n2)cc1`: the cytotoxicity at 70.5 h is -7.91%.

As to `c1ccc([C@@H]2CN(Cc3cccnc3)C[C@H]2c2cc[nH]n2)cc1`, the cytotoxicity at 70.5 h was -7.07%.

Turning to `Cn1ccnc1CN1CCCC(Cc2ccnc3ccncc23)CC1` (stereo not drawn), the cytotoxicity at 70.5 h is -5.22%.
